Reference: US10703764B2, “Benzopiperazine compositions as BET bromodomain inhibitors” (FORMA Therapeutics, Inc., priority 2013, dated 2020)

What was measured:
BRD4 BD2 = molecular target: T1, BRD4 BD2 (Homo sapiens, UniProt O60885); experiment: AlphaScreen binding assay, BRD4 Bromodomain 2
T1 construct: made in house
Outline: (§1)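 Compound dilution series were mixed with His-tagged BRD4 bromodomain and biotinylated tetra-acetylated H4 (1-21) peptide at pH 7.3 (BD1 and peptide at 50 nM, BD2 and peptide at 100 nM). Donor and acceptor beads were then added, and plates were equilibrated at least 1 h before reading. IC50 values were fitted with a four-parameter logistic model.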

BRD4 BD1 = molecular target: T2, BRD4 BD1 (Homo sapiens, UniProt O60885); experiment: AlphaScreen binding assay, BRD4 Bromodomain 1
T2 construct: made in house
Outline: as §1

| SMILES | IC50 (BRD4 BD2) | IC50 (BRD4 BD1) |
| --- | --- | --- |
| CC(=O)N1c2ccc(-c3cnn(C4CC4)c3)cc2N(C(=O)Oc2ccc(C)cc2C)C[C@@H]1C [Example I-516] | 50 to 500 nM | 1000 to 10000 nM |
| CC(=O)N1c2ccc(-c3cnn(C4CC4)c3)cc2N(C(=O)Oc2cncc(C)c2)C[C@@H]1C [Example I-520] | 50 to 500 nM | 1000 to 10000 nM |
| CC(=O)N1c2ccc(-c3cnn(C4CC4)c3)cc2N(C(=O)Oc2cncc3ccccc23)C[C@@H]1C [Example I-525] | 50 to 500 nM | 1000 to 10000 nM |
| CC(=O)N1c2ccc(-c3cnn(C4CC4)c3)cc2N(C(=O)Oc2ccc(C#N)cc2Cl)C[C@@H]1C [Example I-528] | 50 to 500 nM | 1000 to 10000 nM |
| COc1ccc(Cl)c(OC(=O)N2C[C@H](C)N(C(C)=O)c3ccc(-c4cnn(C5CC5)c4)cc32)c1 [Example I-531] | 50 to 500 nM | 1000 to 10000 nM |
| CC(=O)N1c2ccc(-c3ccc(C(=O)Nc4ccccc4)cc3)cc2N(C(=O)OC(C)C)C[C@@H]1C [Example I-535] | 50 to 500 nM | 1000 to 10000 nM |
| COC(=O)N1c2ccc(-c3ccc(C(=O)NCc4ncco4)cc3)cc2N(C(=O)OC(C)C)C[C@@H]1C [Example I-583] | > 500 nM | 1000 to 10000 nM |
| CC(C)OC(=O)N1C[C@H](C)N(C(=O)C2CC2)c2ccc(-c3ccc(C(=O)NCc4ncco4)cc3)cc21 [Example I-585] | > 500 nM | 1000 to 10000 nM |
| CC(C)OC(=O)N1C[C@H](C)N(C(=O)C2CC2)c2ccc(-c3cnn(CC(=O)N(C)C4CC4)c3)cc21 [Example I-610] | 50 to 500 nM | 1000 to 10000 nM |
| CC(C)OC(=O)N1C[C@H](C)N(C(=O)C2CC2)c2ccc(-c3cnn(CCNS(C)(=O)=O)c3)cc21 [Example I-613] | > 500 nM | 1000 to 10000 nM |
| CC(C)OC(=O)N1C[C@H](C)N(C(=O)C2CC2)c2ccc(-c3cnn(CC(=O)N4CCCCC4)c3)cc21 [Example I-614] | 50 to 500 nM | 1000 to 10000 nM |
| CC(C)OC(=O)N1C[C@H](C)N(C(=O)C2CC2)c2ccc(-c3cnn(CC#N)c3)cc21 [Example I-622] | > 500 nM | 1000 to 10000 nM |
| COC(=O)N1c2ccc(-c3cnn(CC(=O)N4CCCCC4)c3)cc2N(C(=O)OC(C)C)C[C@@H]1C [Example I-629] | 50 to 500 nM | 1000 to 10000 nM |
| COC(=O)N1c2ccc(-c3cnn(CC4CCC4)c3)cc2N(C(=O)OC(C)C)C[C@@H]1C [Example I-635] | > 500 nM | 1000 to 10000 nM |
| COC(=O)N1c2ccc(-c3cnn(CC#N)c3)cc2N(C(=O)OC(C)C)C[C@@H]1C [Example I-639] | > 500 nM | 1000 to 10000 nM |
| COC(=O)N1c2ccc(-c3cnn(CCN(C)C)c3)cc2N(C(=O)OC(C)C)C[C@@H]1C [Example I-645] | > 500 nM | 1000 to 10000 nM |
| CC(C)OC(=O)N1C[C@H](C)N(C(=O)C2CC2)c2ccc(-c3cnn(CCN(C)C)c3)cc21 [Example I-646] | > 500 nM | 1000 to 10000 nM |
| CC(=O)N1c2ccc(-c3cnn(C(C)(C)C(N)=O)c3)cc2N(C(=O)C2CC2)C[C@@H]1C [Example I-648] | 50 to 500 nM | 1000 to 10000 nM |
| CC(=O)N1c2ccc(-c3cnn(CC(N)=O)c3)cc2N(C(=O)C2CC2)C[C@@H]1C [Example I-655] | 50 to 500 nM | 1000 to 10000 nM |
| CC(=O)N1c2ccc(-c3cnn(CC(=O)N(C)C4CC4)c3)cc2N(C(=O)C2CC2)C[C@@H]1C [Example I-658] | 50 to 500 nM | 1000 to 10000 nM |
| CC(=O)N1c2ccc(-c3cnn(CCN4CCCC4=O)c3)cc2N(C(=O)C2CC2)C[C@@H]1C [Example I-660] | 50 to 500 nM | 1000 to 10000 nM |
| CC(=O)N1c2ccc(-c3cnn(CC(=O)N4CCCCC4)c3)cc2N(C(=O)C2CC2)C[C@@H]1C [Example I-661] | 50 to 500 nM | 1000 to 10000 nM |
| CC(=O)N1c2ccc(-c3cnn(CC(=O)N4CCC4)c3)cc2N(C(=O)C2CC2)C[C@@H]1C [Example I-672] | 50 to 500 nM | 1000 to 10000 nM |
| CC(=O)N1c2ccc(-c3cnn(CCC(N)=O)c3)cc2N(C(=O)C2CC2)C[C@@H]1C [Example I-674] | 50 to 500 nM | 1000 to 10000 nM |
| CC(=O)N1c2ccc(-c3cnn(CC#N)c3)cc2N(C(=O)C2CC2)C[C@@H]1C [Example I-675] | 50 to 500 nM | 1000 to 10000 nM |
| CC(=O)N1c2ccc(-c3cnn(CC(=O)O)c3)cc2N(C(=O)C2CC2)C[C@@H]1C [Example I-676] | > 500 nM | 1000 to 10000 nM |
| CCNC(=O)Cn1cc(-c2ccc3c(c2)N(C(=O)C2CC2)CC(C)N3C(C)=O)cn1 (stereo not shown) [Example I-681] | 50 to 500 nM | 1000 to 10000 nM |
| CC(=O)N1c2ccc(-c3cnn(CC(=O)N(C)C)c3)cc2N(C(=O)C2CC2)C[C@@H]1C [Example I-683] | 50 to 500 nM | 1000 to 10000 nM |
| CC(=O)N1c2ccc(-c3cnn(CC4CCS(=O)(=O)CC4)c3)cc2N(C(=O)C2CC2)C[C@@H]1C [Example I-684] | 50 to 500 nM | 100 to 1000 nM |
| COC(=O)N1c2ccc(-c3cnn(C[C@@H]4CCNC4)c3)cc2N(C(=O)OC(C)C)C[C@@H]1C [Example I-691] | 50 to 500 nM | 1000 to 10000 nM |

Now from value to molecule:

| IC50 (BRD4 BD2) | IC50 (BRD4 BD1) | SMILES |
| --- | --- | --- |
| > 500 nM | > 10000 nM | CC(=O)N1c2ccccc2N(C(=O)CCN(C)C)C[C@@H]1C [Example I-693] |
| > 500 nM | > 10000 nM | CC(=O)N1c2ccccc2N(C(=O)c2ccccc2)C[C@@H]1C [Example I-694] |
| > 500 nM | > 10000 nM | CC(=O)N1c2ccccc2N(C(=O)Cc2ccccc2)C[C@@H]1C [Example I-695] |
| > 500 nM | > 10000 nM | CC(=O)N1c2ccccc2N(C(=O)CCc2ccccc2)C[C@@H]1C [Example I-696] |
| > 500 nM | > 10000 nM | CC(=O)N1c2ccccc2N(C(=O)C2CCCCC2)C[C@@H]1C [Example I-697] |
| > 500 nM | > 10000 nM | COc1ccc(CC(=O)N2C[C@H](C)N(C(C)=O)c3ccccc32)cc1 [Example I-698] |
| > 500 nM | > 10000 nM | COc1cccc(CC(=O)N2C[C@H](C)N(C(C)=O)c3ccccc32)c1 [Example I-699] |
| > 500 nM | > 10000 nM | COCCC(=O)N1C[C@H](C)N(C(C)=O)c2ccccc21 [Example I-700] |
| > 500 nM | > 10000 nM | CC(=O)N1c2ccccc2N(C(=O)c2ccc3c(c2)OCO3)C[C@@H]1C [Example I-701] |
| > 500 nM | > 10000 nM | COc1ccccc1C(=O)N1C[C@H](C)N(C(C)=O)c2ccccc21 [Example I-702] |
| > 500 nM | > 10000 nM | CC(=O)N1c2ccccc2N(C(=O)c2ccc(-c3ccccc3)cc2)C[C@@H]1C [Example I-703] |
| > 500 nM | > 10000 nM | CC(=O)N1c2ccccc2N(C(=O)c2ccncc2)C[C@@H]1C [Example I-704] |
| > 500 nM | > 10000 nM | CC(=O)N1c2ccccc2N(C(=O)c2csc(C)n2)C[C@@H]1C [Example I-705] |
| > 500 nM | > 10000 nM | CC(=O)N1c2ccccc2N(C(=O)CC2CCOCC2)C[C@@H]1C [Example I-706] |
| > 500 nM | > 10000 nM | CC(=O)N1c2ccccc2N(C(=O)Cc2ccc(-c3ccccc3)cc2)C[C@@H]1C [Example I-707] |
| > 500 nM | > 10000 nM | CC(=O)N1c2ccccc2N(C(=O)CC(C)C)C[C@@H]1C [Example I-708] |
| > 500 nM | > 10000 nM | CC(=O)N1c2ccccc2N(C(=O)Cc2ccc3c(c2)OCO3)C[C@@H]1C [Example I-709] |
| > 500 nM | > 10000 nM | CC(=O)N1c2ccccc2N(C(=O)Cc2cccc(C(F)(F)F)c2)C[C@@H]1C [Example I-710] |

| IC50 (BRD4 BD2) | IC50 (BRD4 BD1) | SMILES |
| --- | --- | --- |
| > 500 nM | > 10000 nM | COc1ccccc1CC(=O)N1C[C@H](C)N(C(C)=O)c2ccccc21 [Example I-711] |
| > 500 nM | > 10000 nM | CC(=O)N1c2ccccc2N(C(=O)COc2ccccc2)C[C@@H]1C [Example I-712] |
| > 500 nM | > 10000 nM | CC(=O)N1c2ccccc2N(C(=O)CC2CCCC2)C[C@@H]1C [Example I-713] |
| > 500 nM | > 10000 nM | CC(=O)N1c2ccccc2N(C(=O)C2CCCC2)C[C@@H]1C [Example I-714] |
| > 500 nM | > 10000 nM | CC(=O)N1c2ccccc2N(C(=O)[C@H](C)c2ccccc2)C[C@@H]1C [Example I-715] |
| > 500 nM | > 10000 nM | CC(=O)N1c2ccccc2N(C(=O)c2ccc3ccccc3c2)C[C@@H]1C [Example I-716] |
| > 500 nM | > 10000 nM | CC(=O)N1c2ccccc2N(C(=O)c2ccc3c(c2)CCO3)C[C@@H]1C [Example I-717] |
| > 500 nM | > 10000 nM | CC(=O)N1c2ccccc2N(C(=O)c2cccc(Cl)c2)C[C@@H]1C [Example I-718] |
| > 500 nM | > 10000 nM | CC(=O)N1c2ccccc2N(C(=O)c2cccc3ccccc23)C[C@@H]1C [Example I-719] |
| 50 to 500 nM | > 10000 nM | CC(=O)N1c2ccccc2N(C(=O)c2ccco2)C[C@@H]1C [Example I-720] |
| > 500 nM | > 10000 nM | CC(=O)N1c2ccccc2N(C(=O)c2cnc(C)cn2)C[C@@H]1C [Example I-721] |
| > 500 nM | > 10000 nM | CC(=O)N1c2ccccc2N(C(=O)c2cc(C)on2)C[C@@H]1C [Example I-722] |
| > 500 nM | > 10000 nM | CC(=O)N1c2ccccc2N(C(=O)c2ccc(-n3cccn3)cc2)C[C@@H]1C [Example I-723] |
| > 500 nM | > 10000 nM | CC(=O)N1c2ccccc2N(C(=O)c2ccc3ncsc3c2)C[C@@H]1C [Example I-724] |
| > 500 nM | > 10000 nM | CC(=O)N1c2ccccc2N(C(=O)c2csc(Nc3cccnc3)n2)C[C@@H]1C [Example I-725] |
| > 500 nM | > 10000 nM | CC(=O)N1c2ccccc2N(C(=O)c2cnc(-c3cccnc3)s2)C[C@@H]1C [Example I-726] |
| > 500 nM | > 10000 nM | CC(=O)N1c2ccccc2N(C(=O)CSc2ccccc2)C[C@@H]1C [Example I-727] |
